The values below come from patent US9340513B2, “Propenoate derivatives of betulin” (GlaxoSmithKline LLC, priority 2011, dated 2016).

This assay concerns HIV-1 (strain IIIB). In words: MT4 Cell Antiviral Assay. To be noted: Human immunodeficiency virus 1, 120 h; HIV-1 strain IIIB in MT4 cells, 5 days, Cell Titer-Glo; 50% decrease in HIV-induced cytopathic effect. In kind it is cell-based. Here is the method: Antiviral HIV activity and compound-induced cytotoxicity were measured in parallel based on a modified protocol of the propidium iodide based procedure in the human T-cell lymphotropic virus transformed cell line MT4. Aliquots of the test compounds were serially diluted in DMSO plated in 96-well plates. Exponentially growing MT4 cells were harvested and pelleted. Cell pellets were resuspended in fresh medium (RPMI 1640, 10% FCS, and gentamycin. Cell aliquots were infected by the addition of HIV-1 (strain IIIB) diluted to give a viral multiplicity of infection of 300×TCID50/million cells. A similar cell aliquot was diluted with medium to provide a mock-infected control. Cell infection was allowed to proceed for 1 hr at 37° C. in a tissue culture incubator with humidified 5% CO2 atmosphere. After the 1 hr incubation the virus/cell suspensions were diluted with fresh medium, and added to each well of the plate containing pre-diluted compound. Plates were then placed in a tissue culture incubator with humidified 5% CO2 for 5 days. […] The plates were analyzed in an automated plate reader for luminescence.assay. The control and standard used was efavirinz tested over a concentration range of 0.001 to 1 μM in every assay. The expected range of IC50 values for efavirinz is 0.1 to 1 nM.
The antiviral effect of a test compound is reported as an IC50, i.e. the inhibitory concentration that would produce a 50% decrease in the HIV-induced cytopathic effect. This effect is measured by the amount of test compound required to restore 50% of the cell growth of HIV-infected MT4 cells, compared to uninfected MT4 cell controls. IC50 was calculated by RoboSage, Automated Curve Fitting Program.
For each assay plate, the results (of wells containing uninfected cells or infected cells with no compound were averaged, respectively. For measurements of compound-induced cytotoxicty, results from wells containing various compound concentrations and uninfected cells were compared to the average of uninfected cells without compound treatment. Percent of cells remaining is determined by the following formula: Percent of cells remaining=(compound-treated uninfected cells/untreated uninfected cells)×100.
A level of percent of cells remaining of 79% or less indicates a significant level of direct compound-induced cytotoxicity for the compound at that concentration. When this condition occurs the results from the compound-treated infected wells at this concentration are not included in the calculation of IC50.
For measurements of compound antiviral activity, results from wells containing various compound concentrations and infected cells are compared to the average of uninfected and infected cells without compound treatment. Percent inhibition of virus is determined by the following formula: Percent inhibition of virus=(1−((ave. untreated uninfected cells−treated infected cells)/(ave. untreated uninfected cells−ave. untreated infected cells)))×100

In the case of `CC(C)C1=C2[C@H]3CC[C@@H]4[C@@]5(C)CC[C@H](OC(=O)CC(C)(C)C(=O)O)C(C)(C)[C@@H]5CC[C@@]4(C)[C@]3(C)CC[C@@]2(/C=C/C(=O)NC2(c3ncc(Cl)cn3)CC2)CC1=O` [Example 26, 4-(((3aS,5aR,5bR,7aR,9S,11aR,11bR,13aS)-3a-((E)-3-((1-(5-Chloropyrimidin-2-yl)cyclopropyl)amino)-3-oxoprop-1-en-1-yl)-1-isopropyl-5a,5b,8,8,11a-pentamethyl-2-oxo-3,3a,4,5,5a,5b,6,7,7a,8,9,10,11,11a,11b,12,13,13a-octadecahydro-2H-cyclopenta[a]chrysen-9-yl)oxy)-2,2-dimethyl-4-oxobutanoic acid], the IC50 is < 10 nM. For the compound `CC(C)C1=C2[C@H]3CC[C@@H]4[C@@]5(C)CC[C@H](OC(=O)CC(C)(C)C(=O)O)C(C)(C)[C@@H]5CC[C@@]4(C)[C@]3(C)CC[C@@]2(/C=C/C(=O)NC2(c3ccccn3)CC2)CC1=O` [Example 12, 4-(((3aS,5aR,5bR,7aR,9S,11aR,11bR,13aS)-1-Isopropyl-5a,5b,8,8,11a-pentamethyl-2-oxo-3a-((E)-3-oxo-3-((1-(pyridin-2-yl)cyclopropyl)amino)prop-1-en-1-yl)-3,3a,4,5,5a,5b,6,7,7a,8,9,10,11,11a,11b,12,13,13a-octadecahydro-2H-cyclopenta[a]chrysen-9-yl)oxy)-2,2-dimethyl-4-oxobutanoic acid], the IC50 was < 10 nM.

In the case of `CC(C)C1=C2[C@H]3CC[C@@H]4[C@@]5(C)CC[C@H](OC(=O)CC(C)(C)C(=O)O)C(C)(C)[C@@H]5CC[C@@]4(C)[C@]3(C)CC[C@@]2(/C=C/C(=O)N[C@@H](C)c2cccc(Cl)c2)CC1=O` [Example 23, 4-(((3aS,5aR,5bR,7aR,9S,11aR,11bR,13aS)-3a-((E)-3-(((S)-1-(3-Chlorophenyl)ethyl)amino)-3-oxoprop-1-en-1-yl)-1-isopropyl-5a,5b,8,8,11a-pentamethyl-2-oxo-3,3a,4,5,5a,5b,6,7,7a,8,9,10,11,11a,11b,12,13,13a-octadecahydro-2H-cyclopenta[a]chrysen-9-yl)oxy)-2,2-dimethyl-4-oxobutanoic acid], the IC50 lay in the range of 10 to 250 nM.

As to `CC(C)C1=C2[C@H]3CC[C@@H]4[C@@]5(C)CC[C@H](OC(=O)CC(C)(C)C(=O)O)C(C)(C)[C@@H]5CC[C@@]4(C)[C@]3(C)CC[C@@]2(/C=C/C(=O)NC2(c3cccc(Cl)c3)CC2)CC1=O` [Example 24, 4-(((3aS,5aR,5bR,7aR,9S,11aR,11bR,13aS)-3a-((E)-3-((1-(3-Chlorophenyl)cyclopropyl)amino)-3-oxoprop-1-en-1-yl)-1-isopropyl-5a,5b,8,8,11a-pentamethyl-2-oxo-3,3a,4,5,5a,5b,6,7,7a,8,9,10,11,11a,11b,12,13,13a-octadecahydro-2H-cyclopenta[a]chrysen-9-yl)oxy)-2,2-dimethyl-4-oxobutanoic acid], the IC50 was < 10 nM. In turn, `CC(C)C1=C2[C@H]3CC[C@@H]4[C@@]5(C)CC[C@H](OC(=O)CC(C)(C)C(=O)O)C(C)(C)[C@@H]5CC[C@@]4(C)[C@]3(C)CC[C@@]2(/C=C/C(=O)N[C@@H](C)c2ccncn2)CC1=O` [Example 8, 4-(((3aS,5aR,5bR,7aR,9S,11aR,11bR,13aS)-1-Isopropyl-5a,5b,8,8,11a-pentamethyl-2-oxo-3a-((E)-3-oxo-3-(((S)-1-(pyrimidin-4-yl)ethyl)amino)prop-1-en-1-yl)-3,3a,4,5,5a,5b,6,7,7a,8,9,10,11,11a,11b,12,13,13a-octadecahydro-2H-cyclopenta[a]chrysen-9-yl)oxy)-2,2-dimethyl-4-oxobutanoic acid] registered an IC50 of 10 to 250 nM. With `CC(C)C1=C2[C@H]3CC[C@@H]4[C@@]5(C)CC[C@H](OC(=O)CC(C)(C)C(=O)O)C(C)(C)[C@@H]5CC[C@@]4(C)[C@]3(C)CC[C@@]2(/C=C/C(=O)N[C@@H](C)c2ccc(Cl)cn2)CC1=O` [Example 3, 4-(((3aS,5aR,5bR,7aR,9S,11aR,11bR,13aS)-3a-((E)-3-(((S)-1-(5-Chloropyridin-2-yl)ethyl)amino)-3-oxoprop-1-en-1-yl)-1-isopropyl-5a,5b,8,8,11a-pentamethyl-2-oxo-3,3a,4,5,5a,5b,6,7,7a,8,9,10,11,11a,1 b,12,13,13a-octadecahydro-2H-cyclopenta[a]chrysen-9-yl)oxy)-2,2-dimethyl-4-oxobutanoic acid], the concentration for half-maximal inhibition (IC50) was < 10 nM.

`C/C(=C\[C@@]12CC[C@]3(C)[C@H](CC[C@@H]4[C@@]5(C)CC[C@H](OC(=O)CC(C)(C)C(=O)O)C(C)(C)[C@@H]5CC[C@]43C)C1=C(C(C)C)C(=O)C2)C(=O)NC1(c2cccc(Cl)c2)CC1` [Example 29, 4-(((3aS,5aR,5bR,7aR,9S,11aR,11bR,13aS)-3a-((E)-3-((1-(3-Chlorophenyl)cyclopropyl)amino)-2-methyl-3-oxoprop-1-en-1-yl)-1-isopropyl-5a,5b,8,8,11a-pentamethyl-2-oxo-3,3a,4,5,5a,5b,6,7,7a,8,9,10,11,11a,11b,12,13,13a-octadecahydro-2H-cyclopenta[a]chrysen-9-yl)oxy)-2,2-dimethyl-4-oxobutanoic acid] displayed a concentration for half-maximal inhibition (IC50) of 10 to 250 nM. `CC(C)C1=C2[C@H]3CC[C@@H]4[C@@]5(C)CC[C@H](OC(=O)CC(C)(C)C(=O)O)C(C)(C)[C@@H]5CC[C@@]4(C)[C@]3(C)CC[C@@]2(/C=C/C(=O)Nc2ccc(F)cc2)CC1=O` [Example 17, 4-(((3aS,5aR,5bR,7aR,9S,11aR,11bR,13aS)-3a-((E)-3-((4-Fluorophenyl)amino)-3-oxoprop-1-en-1-yl)-1-isopropyl-5a,5b,8,8,11a-pentamethyl-2-oxo-3,3a,4,5,5a,5b,6,7,7a,8,9,10,11,11a,11b,12,13,13a-octadecahydro-2H-cyclopenta[a]chrysen-9-yl)oxy)-2,2-dimethyl-4-oxobutanoic acid] registered a 50% inhibitory concentration (IC50) of 10 to 250 nM. Take `CC(C)C1=C2[C@H]3CC[C@@H]4[C@@]5(C)CC[C@H](OC(=O)CC(C)(C)C(=O)O)C(C)(C)[C@@H]5CC[C@@]4(C)[C@]3(C)CC[C@@]2(/C=C/C(=O)NC2(c3ccc(Cl)cc3)CC2)CC1=O` [Example 1, 4-(((3aS,5aR,5bR,7aR,9S,11aR,11bR,13aS)-3a-((E)-3-((1-(4-Chlorophenyl)cyclopropyl)amino)-3-oxoprop-1-en-1-yl)-1-isopropyl-5a,5b,8,8,11a-pentamethyl-2-oxo-3,3a,4,5,5a,5b,6,7,7a,8,9,10,11,11a,11b,12,13,13a-octadecahydro-2H-cyclopenta[a]chrysen-9-yl)oxy)-2,2-dimethyl-4-oxobutanoic acid]: the concentration for half-maximal inhibition (IC50) is < 10 nM. Regarding `CC(C)C1=C2[C@H]3CC[C@@H]4[C@@]5(C)CC[C@H](OC(=O)CC(C)(C)C(=O)O)C(C)(C)[C@@H]5CC[C@@]4(C)[C@]3(C)CC[C@@]2(/C=C/C(=O)N[C@@H](C)c2cccc(Cl)c2)CC1` [Example 34, 4-(((3aR,5aR,5bR,7aR,9S,11aR,11bR,13aS)-3a-((E)-3-(((S)-1-(3-Chlorophenyl)ethyl)amino)-3-oxoprop-1-en-1-yl)-1-isopropyl-5a,5b,8,8,11a-pentamethyl-3,3a,4,5,5a,5b,6,7,7a,8,9,10,11,11a,11b,12,13,13a-octadecahydro-2H-cyclopenta[a]chrysen-9-yl)oxy)-2,2-dimethyl-4-oxobutanoic acid], the IC50 was 10 to 250 nM. Consider `C/C(=C\[C@@]12CC[C@]3(C)[C@H](CC[C@@H]4[C@@]5(C)CC[C@H](OC(=O)CC(C)(C)C(=O)O)C(C)(C)[C@@H]5CC[C@]43C)C1=C(C(C)C)C(=O)C2)C(=O)NC1(c2ncc(Cl)cn2)CC1` [Example 28, 4-(((3aS,5aR,5bR,7aR,9S,11aR,11bR,13aS)-3a-((E)-3-((1-(5-Chloropyrimidin-2-yl)cyclopropyl)amino)-2-methyl-3-oxoprop-1-en-1-yl)-1-isopropyl-5a,5b,8,8,11a-pentamethyl-2-oxo-3,3a,4,5,5a,5b,6,7,7a,8,9,10,11,11a,11b,12,13,13a-octadecahydro-2H-cyclopenta[a]chrysen-9-yl)oxy)-2,2-dimethyl-4-oxobutanoic acid], for which the concentration for half-maximal inhibition (IC50) is < 10 nM. Turning to `CC(C)C1=C2[C@H]3CC[C@@H]4[C@@]5(C)CC[C@H](OC(=O)CC(C)(C)C(=O)O)C(C)(C)[C@@H]5CC[C@@]4(C)[C@]3(C)CC[C@@]2(/C=C/C(=O)NCC2CCCCC2)CC1=O` [Example 33, 4-(((3aS,5aR,5bR,7aR,9S,11aR,11bR,13aS)-3a-((E)-3-((Cyclohexylmethyl)amino)-3-oxoprop-1-en-1-yl)-1-isopropyl-5a,5b,8,8,11a-pentamethyl-2-oxo-3,3a,4,5,5a,5b,6,7,7a,8,9,10,11,11a,11b,12,13,13a-octadecahydro-2H-cyclopenta[a]chrysen-9-yl)oxy)-2,2-dimethyl-4-oxobutanoic acid], the IC50 was < 10 nM.
